Assay results taken from patent US20230181638A1, “IMMUNOGENIC PEPTIDES WITH NEW OXIDOREDUCTASE MOTIFS” (IMCYSE SA, priority 2020, published 2023).
Where a SMILES comes first, the peptide text is derived from it. Where no end group is shown, it is not given here.

Assays:
[1] = test system: Experimental Auto-Immune Encephalomyelitis (EAE); assay: therapeutic administration, EAE clinical score in mice; format: in vivo; details: for mice died: therapeutic EAE study, 16 mice per group, deaths did not appear to be due to EAE
Procedure: The study used a total of 64 female C57BL/6 mice (Taconic Biosciences, 9 weeks old on Day 0). Mice were acclimated for 7 days prior to the first injection. Mice were assigned to groups in a balanced manner to achieve similar average weight across the groups at the start of the study.
Dosing of all mice was performed once on each of the days indicated in Table 6, s.c., at a volume of 0.05 mL/site, each mouse receiving injection at two sites, for a total of 0.1 mL/mouse/dosing day. IMCY-0189, IMCY-0453 or IMCY-0455 peptide total close was […] per administration.
For Saline treatment, 0.9% NaCl solution was prepared at each dosing day. Peptide's preparation was performed as described in example 3.
(§1) AUC, MMS, inflammation and demyelination, and NF-L levels quantification data were analyzed by performing Ordinary one-way ANOVA. Adjustment for multiplicity was performed using Holm-Sidak's method. Significant differences are referred as follows: *p<0.05, **p<0.01, ***p<0.001, ****p<0.0001.
EAE induction and scoring were performed as described in example 3.
EAE development was evaluated by comparing clinical EAE readouts for all groups to the negative control (Saline) group.

[2] = test system: Experimental Auto-Immune Encephalomyelitis (EAE); assay: prophylactic administration, EAE clinical score in mice; format: in vivo, C57BL/6 mice; details: vs Alum control group, FIG. 2C, FIG. 4
2D2-Total CD4+ cells = assay: induction of lytic markers on CD4+ T cells after second stimulation; format: cell-based, 2D2 transgenic mice; details: 5 μM control peptide, 10-14 days after S1
Excerpt: 2D2 transgenic mice (Jackson Laboratory) were used as a source of CD4+ cell. […] In this study, 2D2-Total CD4+ cells were purified using manufacture instruction (Miltenyi Biotec, 130-104-454) and antigen presenting cells were splenocyte depleted for T cell repertoire (CD90.2 depletion, Miltenyi Biotec, 130-104-454) from C57BL6 mice (compatible with 2D2-transgenic mice). Control conditions for every study were either no-peptide addition or addition of IMCY-0017, IMCY-0257 or IMCY-0069 (see example 1 and table 1) which the two later, can bind to MHCII from C57BL6-APC efficiently but not activate the TCR from 2D2-transgenic CD4+ T cells. AA controls were not used.
Immunogenic peptides comprising an MCHII T cell epitope and a classical oxidoreductase motif of sequence CxxC are known from the art to induce CD4+ cells with lytic markers called cytolytic CD4+ cells (cCD4+). Therefore, it was attempted to determine whether the peptide variants of the present invention would lead to earlier and/or stronger (percentage or intensity) lytic properties in activated Ag-specific CD4 T cells. […] The FACS results were then determined for all variants of IMCY-0189 and the measurement for the wild type peptide (IMCY-0017) was removed from all the other measurements to determine purely the effect of every modified oxidoreductase motif on the induction of lytic properties.

[3] = test system: Neurofilament light (NF-L) protein; assay: therapeutic EAE study, serum neurofilament levels (Simoa NF-light); format: in vivo, C57BL/6 mice; details: serum on Day 28, vs Saline negative control, FIG. 10
Procedure: On Day 28, blood was collected from all mice into gel dot activator tubes and allowed to dot at room temperature for ˜30 minutes. Blood is then centrifuged at ˜10000 g for 5 minutes. Serum was transferred into Eppendorf tubes and stored at −80° C. until shipment to Quanterix™. Serum Neurofilament light (NF-L) protein levels were quantified using Simoa® NF-light Advantage kit, a digital immunoassay for the quantitative determination of NF-L in serum, plasma and CSF. The used antibodies (Uman Diagnostics, Umeå Sweden) also cross react with murine, bovine and macaque NF-L epitopes and as such, this assay can be used for research with these species. All samples were tested in duplicate at a dilution factor of 40×.
as §1
Axonal damage was also evaluated by comparing NF-L levels for all groups to the negative control (Saline) group.

[4] = test system: Experimental Auto-Immune Encephalomyelitis (EAE); assay: therapeutic EAE study, spinal cord histology (H&E, anti-MBP); format: in vivo, C57BL/6 mice; details: spinal cord sections at end of study, vs Saline control
Procedure: At the end of the study, all mice were euthanized, and spines were collected and placed in 10% buffered formalin for histological analysis.
For each spine, one H&E stained slide and one anti-MBP stained slide were prepared and analyzed. Each slide contained a section with samples from lumbar, thoracic and cervical of spinal cord (3 samples). All analysis was performed by a pathologist blinded to the experimental groups and all clinical readouts.
Inflammatory foci of approximately 20 cells were counted in each H&E stained section. When inflammatory infiltrates consisted of more than 20 cells, an estimate was made of how many foci of 20 cells were present.
Demyelination was scored in each anti-MBP (using immunohistochemistry) stained section. In anti-MBP sections, demyelination is observed as conspicuous unstained areas in white matter tracts and is associated with presence of large vacuoles. […]
AUC, MMS, inflammation and demyelination, and NF-L levels quantification data were analyzed by performing Ordinary one-way ANOVA. […]
Histological readouts were evaluated by comparing inflammation and demyelination levels for all groups to the negative control (Saline) group.

[5] = therapeutic, 30 μg s.c. with Alum on Days 4, 9, 14, 19, vs Saline negative control

In the case of CC(C)C[C@H](NC(=O)[C@H](Cc1c[nH]cn1)NC(=O)[C@@H](NC(=O)[C@@H](NC(=O)[C@H](CCCNC(=N)N)NC(=O)[C@H](CO)NC(=O)[C@H](Cc1ccccc1)NC(=O)[C@@H]1CCCN1C(=O)[C@H](CO)NC(=O)[C@H](CCCNC(=N)N)NC(=O)[C@H](Cc1ccc(O)cc1)NC(=O)[C@H](Cc1c[nH]c2ccccc12)NC(=O)CNC(=O)[C@H](CS)NC(=O)[C@H](Cc1ccc(O)cc1)NC(=O)[C@@H]1CCCN1C(=O)[C@H](CS)NC(=O)[C@@H](N)Cc1c[nH]cn1)C(C)C)C(C)C)C(=O)N[C@@H](Cc1ccc(O)cc1)C(=O)N[C@@H](CCCNC(=N)N)C(N)=O [IMCY-0189, HCPYC-GWYRSPFSRVVHLYR-NH2, reference compound] (H-HCPYCGWYRSPFSRVVHLYR-NH2), the mice died [1] is reported as “No mice died”.
CC(C)C[C@H](NC(=O)[C@H](Cc1c[nH]cn1)NC(=O)[C@@H](NC(=O)[C@@H](NC(=O)[C@H](CCCNC(=N)N)NC(=O)[C@H](CO)NC(=O)[C@H](Cc1ccccc1)NC(=O)[C@@H]1CCCN1C(=O)[C@H](CO)NC(=O)[C@H](CCCNC(=N)N)NC(=O)[C@H](Cc1ccc(O)cc1)NC(=O)[C@H](Cc1c[nH]c2ccccc12)NC(=O)CNC(=O)[C@H](CS)NC(=O)[C@H](CCCNC(=N)N)NC(=O)[C@H](CS)NC(=O)[C@@H](N)CCCCN)C(C)C)C(C)C)C(=O)N[C@@H](Cc1ccc(O)cc1)C(=O)N[C@@H](CCCNC(=N)N)C(N)=O [IMCY-0453, KCRC-GWYRSPFSRVVHLYR-NH2] (H-KCRCGWYRSPFSRVVHLYR-NH2) showed a mice died [1] of 1.
In the case of “CPYC-GWYRSPFSRVVHLYR-NH2 (CPYCGWYRSPFSRVVHLYR-NH2; cysteine pairing not given here) [IMCY-0443]”, the “reduction of the peak of the disease or MMS” value [2] is reported as “not observed”.
With “HCPYC-LALWEPKPTQAFVK-NH2 (HCPYCLALWEPKPTQAFVK-NH2; cysteine pairing not given here) [IMCY-0069]” the “survival of the cell culture up to second stimulation” value (2D2-Total CD4+ cells) was “did not survive in the cell culture”.
“HCPYC-NGGFNSNRANSSRSS-NH2 (HCPYCNGGFNSNRANSSRSS-NH2; cysteine pairing not given here) [IMCY-0257]” was tested, and the “survival of the cell culture up to second stimulation” value (2D2-Total CD4+ cells) was “did not survive in the cell culture”.
For “KCRPYC-GWYRSPFSRVVHLYR-NH2 (KCRPYCGWYRSPFSRVVHLYR-NH2; cysteine pairing not given here) [IMCY-0455, KCRPYC motif variant of IMCY-0189]”, the mice died [1] was 1, the “all clinical readouts (disease onset, end score, AUC and MMS) as compared to IMCY-0189” value ([1]; therapeutic, 30 μg s.c. with Alum on Days 4, 9, 14, 19, vs IMCY-0189 group) was “statistically significantly improved” and the disease onset [1, 5] was “statistically significantly improved”. The end score [1, 5] was “statistically significantly improved”, the “AUC of EAE scores” value ([1]; therapeutic, 30 μg s.c. with Alum on Days 4, 9, 14, 19, vs Saline negative control, FIG. 6) was “statistically significantly improved” and the “MMS of EAE scores” value ([1]; therapeutic, 30 μg s.c. with Alum on Days 4, 9, 14, 19, vs Saline negative control, FIG. 7) was “statistically significantly improved”. The “serum NF-L levels” value [3] was “statistically significant reduced”, the “level of inflammation (inflammatory foci, H&E)” value ([4]; FIG. 8) was “statistically significant reduced level” and the “level of demyelination (anti-MBP score)” value ([4]; FIG. 9) was “statistically significant reduced level”.
